From patent US20090181953A1, “COMPOUND FORMS AND USES THEREOF” (WYETH, priority 2008, published 2009)

Key:
[1] = molecular target: T1, α7 nicotinic acetylcholine receptor (Rattus norvegicus, UniProt Q05941); test: functional FLIPR assay, α7 nAChR stably expressed in GH4C1 cells; assay type: cell-based; conditions: GH4C1 cells stably transfected with rat α7 nAChR; agonist concentration range 0.001 to 30 microM
T1 construct: expressed in transfected cells
Text: Rat GH4C1 cells were then transfected with the rat receptor, cloned and analyzed for functional alpha7 nicotinic receptor expression employing a FLIPR assay to measure changes in intracellular calcium concentrations.
The FLIPR system allows the measurements of real time Ca^2+-concentration changes in living cells using a Ca^2+ sensitive fluorescence dye (such as Fluo4). This instrument enables the screening for agonists and antagonists for alpha 7 nAChR channels stably expressed in GH4C1 cells.
GH4C1 cells stably transfected with rat-α7-nAChR (see above) were used. These cells are poorly adherent and therefore pretreatment of flasks and plates with poly-D-lysine was carried out. Cells are grown in 150 cm^2 T-flasks, filled with 30 ml of medium at 37° C. and 5% CO2.
EC50 and IC50 values were calculated using the IDBS XLfit4.1 software package employing a sigmoidal concentration-response (variable slope) equation:

[2] = hygroscopicity, Dynamic Vapor Sorption (DVS); assay type: physicochemical; conditions: for water absorbed eventually (up to): 90% RH; for RH at which moisture pick-up starts: relative humidity; for Hygroscopicity: hydrochloric acid salt
Experimental: Salt forms of a compound of formula 1 were investigated with X-ray powder diffraction, DSC, TGA and microscopy. FIG. 1 illustrates X-ray patterns observed for various salt forms. FIGS. 2 and 3 present results of thermal studies performed on such salt forms. FIGS. 4 and 5 present DVS data of sulfuric and phosphoric salts. […] FIGS. 6-12 show characterization data for hydrochloride salt forms.
Dynamic Vapor Sorption (DVS) was done at 25-26° C.

[3] = solubility of hydrochloride crystal forms; assay type: physicochemical

T1 sequence (Q05941 23-502): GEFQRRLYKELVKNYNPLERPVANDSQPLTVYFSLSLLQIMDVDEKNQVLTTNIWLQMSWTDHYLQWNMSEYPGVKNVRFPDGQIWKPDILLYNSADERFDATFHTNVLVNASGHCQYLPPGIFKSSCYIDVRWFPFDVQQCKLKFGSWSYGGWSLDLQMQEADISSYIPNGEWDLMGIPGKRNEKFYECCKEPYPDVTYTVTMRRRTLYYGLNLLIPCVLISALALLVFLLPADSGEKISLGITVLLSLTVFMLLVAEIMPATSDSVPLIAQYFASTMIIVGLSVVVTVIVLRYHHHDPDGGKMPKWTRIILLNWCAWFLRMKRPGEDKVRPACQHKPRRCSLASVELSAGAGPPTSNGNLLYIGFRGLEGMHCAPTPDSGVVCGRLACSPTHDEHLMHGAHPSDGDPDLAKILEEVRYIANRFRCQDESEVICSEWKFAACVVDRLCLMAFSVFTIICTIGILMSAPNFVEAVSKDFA

Compound C[N+]1(C)CCN(c2ccccc2)CC1 [DMPP] has an EC50 [1] of 980 ± 470 nM.

In the case of COc1ccc(-c2cc(NC(=O)CCCCN3CCCN(C(C)=O)CC3)n[nH]2)cc1.Cl [Form I, 5-(4-acetyl-1,4-diazepan-1-yl)-N-(5-(4-methoxyphenyl)-1H-pyrazol-3-yl)pentanamide hydrochloric salt Form I], the “moisture gained at 70-100% RH” value ([2]; 70-100% RH, lost without significant hysteresis on decreasing RH) is reported as “at least 2%”, the “water absorbed eventually (up to)” value [2] is reported as “up to 2%” and the “moisture gained when equilibrated at RH less than or equal to 70%” value ([2]; RH <= 70%) is reported as “about 0.5%”. The “RH at which moisture pick-up starts” value [2] was “about 50%” and the “solubility in water (in words)” value [3] was “considerably soluble”.

For COc1ccc(-c2cc(NC(=O)CCCCN3CCCN(C(C)=O)CC3)n[nH]2)cc1.Cl [Form II, 5-(4-acetyl-1,4-diazepan-1-yl)-N-(5-(4-methoxyphenyl)-1H-pyrazol-3-yl)pentanamide hydrochloric salt Form II], the “water absorbed eventually (up to)” value [2] was “up to 7%”, the “water held at low RH” value ([2]; low RH (0%)) was 2% and the “RH at which moisture pick-up starts” value [2] was “about 20%”. The “solubility in water (in words)” value [3] was “considerably soluble”.

For COc1ccc(-c2cc(NC(=O)CCCCN3CCCN(C(C)=O)CC3)n[nH]2)cc1.Cl [Form III], the “water held at 50% RH” value ([2]; listed as Crystal Form III) was “(10% water”, the “Hygroscopicity (in words)” value ([2]; listed as Crystal Form III) was “Hygroscopic” and the solubility ([3]; MC/T, aqueous with cosolvent or surfactant or cyclodextrin) was over 100 mg/mL.

With COc1ccc(-c2cc(NC(=O)CCCCN3CCCN(C(C)=O)CC3)n[nH]2)cc1.Cl [Form V] the “water held at 50% RH” value ([2]; listed as Crystal Form V) was “(7% at RH” and the “Hygroscopicity (in words)” value ([2]; listed as Crystal Form V) was “Hygroscopic”.

In the case of COc1ccc(-c2cc(NC(=O)CCCCN3CCCN(C(C)=O)CC3)n[nH]2)cc1.Cl [Hydrochloric acid, 5-(4-acetyl-1,4-diazepan-1-yl)-N-(5-(4-methoxyphenyl)-1H-pyrazol-3-yl)pentanamide hydrogen chloride], the Hygroscopicity ([2]; crystalline solid with melting onset 125° C. (first of two such lines)) is reported as “Yes”, the Hygroscopicity ([2]; crystalline solid with melting onset 165° C.) is reported as “Somewhat” and the Hygroscopicity ([2]; crystalline solid with melting onset 185° C.) is reported as “No”. The Hygroscopicity ([2]; solid with three peaks: about 100, about 180 and about 200° C.) was “Yes”, the “hygroscopicity of the sample” value ([2]; hydrochloride salt of Example 2D, precipitated from DCM with HCl in Et2O) was “extreme hygroscopicity” and the “Hygroscopicity (in words)” value ([2]; listed as hydrochloride) was “non-hygroscopic”. The melting point was 132 to 133 °C.

With Sulfuric acid the “water held at 50% RH” value [2] was “maintains 0.4%”, the “water held at 50% RH” value ([2]; listed as sulfate salt form) was “about 0.4%” and the “water held at 50% RH” value ([2]; listed as sulfuric salt form) was “about 0.4%”. For the same compound, the “gain below 70% RH” value ([2]; below 70% RH) was 0.5%, the “Hygroscopicity (in words)” value ([2]; listed as sulfate salt) was “non-hygroscopic” and the “Hygroscopicity (in words)” value ([2]; listed as sulfate salt form) was “low degree of hygroscopicity”. The “Hygroscopicity (in words)” value ([2]; listed as sulfuric salt form) was “low degree of hygroscopicity”.
